Results reported in ChEMBL document CHEMBL2396603, “Heterocyclic modification of a novel bicyclo[3.1.0]hexane NPY1 receptor antagonist” (Bioorg Med Chem Lett, 2013).
Converted amounts (≈) assume the structure as drawn. The source made the active and inactive calls. The calls are words filed in the database; no cut-off is given here.

Columns and labels:
[1] = target: T1, Neuropeptide Y receptor type 1 (Homo sapiens, UniProt P25929); test: Displacement of [125I]PYY from NPY1 receptor in human SK-N-MC cells after 1 hr by microbeta scintillation counting analysis; type: cell-based
T1 sequence (P25929 whole entry): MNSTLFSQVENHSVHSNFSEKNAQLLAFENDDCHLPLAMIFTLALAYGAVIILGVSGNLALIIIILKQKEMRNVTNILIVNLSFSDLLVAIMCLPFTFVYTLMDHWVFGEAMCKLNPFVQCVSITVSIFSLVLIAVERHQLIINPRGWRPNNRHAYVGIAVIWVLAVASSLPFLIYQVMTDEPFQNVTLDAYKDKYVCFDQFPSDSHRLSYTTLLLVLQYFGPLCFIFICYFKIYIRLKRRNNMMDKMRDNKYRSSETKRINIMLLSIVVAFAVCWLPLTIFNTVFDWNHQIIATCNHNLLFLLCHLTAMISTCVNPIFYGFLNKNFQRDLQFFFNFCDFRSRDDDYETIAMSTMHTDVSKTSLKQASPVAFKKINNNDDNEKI

[2] = Aqueous solubility of the compound in 40% aqueous trappsol; type: physicochemical
[3] = Bioavailability in rat at 10 mg/kg, ip; type: ADME, organism-based; details: in vivo
[4] = tested on: Rattus norvegicus; test: Antiobesity activity in Sprague-Dawley rat spontaneous nocturnal feeding model assessed as reduction in food intake at 10 to 30 mg/kg, ip administered 1 hr before onset of darkness measured during first hour and first 3 hrs of darkness; type: functional, organism-based
[5] = Drug uptake in rat brain at 10 mg/kg, ip after 15 mins; type: ADME, organism-based; parameters: dose 10 mg/kg, route intraperitoneal; details: read-out: Drug uptake
[6] = Oral bioavailability in rat at 20 mg/kg; type: ADME, organism-based; details: in vivo
[7] = tested on: Rattus norvegicus; test: Antiobesity activity in Sprague-Dawley rat spontaneous nocturnal feeding model assessed as reduction in food intake at 35.6 to 60 mg/kg, po administered 2.5 hrs before onset of darkness measured during first hr; type: functional, organism-based

| Compound | IC50 [1] [µM] | other results |
| --- | --- | --- |
| CCOc1cccc(C2(N3CCN(c4ncncn4)CC3)C3CC(C)CC32)c1 (stereo unspecified) | 4.27 |  |
| CCOc1cccc(C2(N3CCN(Cc4ccccc4)CC3)C3CC(C)CC32)c1 (stereo unspecified) | > 10 |  |
| CCOc1cccc(C2(N3CCN(c4cccnn4)CC3)C3CC(C)CC32)c1 (stereo unspecified) | 4.38 |  |
| CCOc1cccc(C2(N3CCN(c4ccc(Cl)nn4)CC3)C3CC(C)CC32)c1 (stereo unspecified) | > 10 |  |
| CCOc1cccc(C2(N3CCN(c4ccncc4)CC3)C3CC(C)CC32)c1 (stereo unspecified) | > 10 |  |
| CCOc1cccc(C2(N3CCN(c4cccnc4)CC3)C3CC(C)CC32)c1 (stereo unspecified) | 0.892 |  |
| CCOc1cccc(C2(N3CCN(c4cncnc4)CC3)C3CC(C)CC32)c1 (stereo unspecified) | 5.03 |  |
| CCOc1cccc(C2(N3CCN(c4ncccn4)CC3)C3CC(C)CC32)c1 (stereo unspecified) | 0.054 | solubility [2]: 10000 µg/mL (≈ 26.4 mM) |
| CCOc1cccc(C2(N3CCNCC3)C3CC(C)CC32)c1 (stereo unspecified) | > 10 |  |
| CCOc1cccc(C2(N3CCN(c4cnccn4)CC3)C3CC(C)CC32)c1 (stereo unspecified) | 0.265 |  |
| CCOc1cccc(C2(N3CCN(c4ccccc4N)CC3)C3CC(C)CC32)c1 (stereo unspecified) | > 10 |  |
| CCOc1cccc(C2(N3CCN(c4cccc(OC)n4)CC3)C3CC(C)CC32)c1 (stereo unspecified) | > 10 |  |
| CCOc1cccc(C2(N3CCN(c4ccccn4)CC3)C3CC(C)CC32)c1 (stereo unspecified) | 0.042 | bioavailability [3]: 40%; Activity [4]: Active; concentration at 0.25 h [5]: > 100 nM; bioavailability [6]: 53%; solubility [2]: > 50000 µg/mL; Activity [7]: Active |
| CCOc1cccc(C2(N3CCN(c4ccccc4)CC3)C3CC(C)CC32)c1 (stereo unspecified) | 0.062 |  |
